Laboratory results taken from publication PMC13316043, “Structural basis of NSD2 degradation via targeted recruitment of SCF-FBXO22” (Nature Communications, 2026).

Biological target: T1, NSD2 (Homo sapiens, UniProt O96028)
T1 construct: endogenous in cells; host or cells: U2OS (ATCC)
T1 sequence (O96028 1-1365): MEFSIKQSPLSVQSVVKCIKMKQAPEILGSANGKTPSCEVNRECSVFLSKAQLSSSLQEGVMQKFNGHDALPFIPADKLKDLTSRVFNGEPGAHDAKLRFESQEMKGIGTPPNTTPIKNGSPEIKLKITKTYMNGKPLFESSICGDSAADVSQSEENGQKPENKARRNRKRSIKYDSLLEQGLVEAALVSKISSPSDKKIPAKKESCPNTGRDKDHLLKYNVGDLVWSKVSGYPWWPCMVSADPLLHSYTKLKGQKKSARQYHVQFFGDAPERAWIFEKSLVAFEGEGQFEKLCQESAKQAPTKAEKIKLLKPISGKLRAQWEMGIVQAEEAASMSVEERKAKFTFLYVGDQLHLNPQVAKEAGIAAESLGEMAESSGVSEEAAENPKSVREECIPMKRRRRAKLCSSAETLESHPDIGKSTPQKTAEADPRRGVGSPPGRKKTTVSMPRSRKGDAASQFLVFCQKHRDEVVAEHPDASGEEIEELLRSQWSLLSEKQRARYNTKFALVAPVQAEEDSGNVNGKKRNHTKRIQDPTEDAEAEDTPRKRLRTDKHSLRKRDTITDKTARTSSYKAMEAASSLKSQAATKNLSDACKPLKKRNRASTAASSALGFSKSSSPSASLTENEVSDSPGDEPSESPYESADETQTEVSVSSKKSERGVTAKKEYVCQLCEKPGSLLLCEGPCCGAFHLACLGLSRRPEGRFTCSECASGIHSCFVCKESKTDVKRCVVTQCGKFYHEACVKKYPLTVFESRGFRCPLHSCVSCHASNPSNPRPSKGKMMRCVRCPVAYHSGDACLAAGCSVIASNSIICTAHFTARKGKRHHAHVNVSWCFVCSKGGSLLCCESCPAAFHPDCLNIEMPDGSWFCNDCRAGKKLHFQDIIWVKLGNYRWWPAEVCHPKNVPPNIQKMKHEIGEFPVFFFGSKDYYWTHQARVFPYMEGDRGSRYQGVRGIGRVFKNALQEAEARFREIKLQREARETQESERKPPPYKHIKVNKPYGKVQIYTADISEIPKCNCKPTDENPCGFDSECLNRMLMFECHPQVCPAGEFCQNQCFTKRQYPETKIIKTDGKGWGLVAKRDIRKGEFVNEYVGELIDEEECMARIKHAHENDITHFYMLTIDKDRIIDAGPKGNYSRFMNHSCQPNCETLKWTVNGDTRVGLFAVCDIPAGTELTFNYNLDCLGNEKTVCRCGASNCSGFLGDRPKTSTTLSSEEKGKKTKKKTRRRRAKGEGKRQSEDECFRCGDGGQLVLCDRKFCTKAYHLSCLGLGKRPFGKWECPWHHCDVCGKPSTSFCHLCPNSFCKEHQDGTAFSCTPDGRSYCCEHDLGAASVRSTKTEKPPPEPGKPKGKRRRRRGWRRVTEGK
Test: Western blot of NSD2 in U2OS cells
Assay type: cell-based
Conditions: 300 nM, 6 h
Experimental: HEK293T and U2OS were obtained from ATCC and cultured in high-glucose-containing Dulbecco’s Modified Eagle’s Medium (DMEM; Gibco; cat. #11995) supplemented with 10% fetal bovine serum (VWR) and 1% penicillin/streptomycin (Gibco). Cells were treated with either UNC10415667, UNC12149, UNC12567, hemin (Sigma; cat. #H9039), or DMSO control for the indicated times and analyzed by western blot using standard procedures. Briefly, cells were lysed on ice for 15 min in NETN lysis buffer (20 mM Tris pH 8.0, 100 mM NaCl, 0.5 mM EDTA, 0.5% NP40) supplemented with 10 µg/mL aprotinin, 10 µg/mL leupeptin, 10 µg/mL pepstatin A, 1 mM sodium orthovanadate, 1 mM sodium fluoride, and 1 mM AEBSF (4-[two aminoethyl] benzenesulfonyl fluoride). Cell lysates were centrifuged at 20,000×g in a benchtop microcentrifuge at 4 °C for 10 min. Protein concentration was determined by Bradford assay (Bio-Rad; cat. #5000006). Protein concentration was normalized using Laemmli buffer. Samples were heated for 5 min at 95°C in a dry water-bath. Samples were separated on TGX stain free gels (Bio-Rad) transferred to nitrocellulose membrane and blocked in 5% non-fat dry milk (Biorad; cat. #1706404) diluted in 1x TBS-T (137 mM NaCl, 2.7 mM KCl, 25 mM Tris pH 7.6, 1% Tween-20). […]

In the case of `Cc1cc(C=O)ccc1C(=O)N1CCc2cc(NC(=O)c3ccc(CN(C(=O)c4ccc5c(c4)OCC(=O)N5)C4CC4)cc3)ccc2C1` [UNC12149], the “NSD2 level by western blot” value is reported as “undetectable”.
